The source of these data is ChEMBL document CHEMBL6134877, “Innovative Approaches in Psychedelics, AI, and Communication: A Multi-Domain Perspective” (ACS Med Chem Lett, 2025).

As a reminder, the Tmax is the time from dosing to the highest level. Usually AUC(0-t) stands for the area under the concentration-time curve up to a stated or last time point. Lower therefore signals less exposure. One may read the AUC(0-inf) as the area under the concentration-time curve extrapolated to infinity. A high value points to high exposure. The term Cmax denotes the highest concentration seen after dosing. Usually half-life stands for how long it takes for the measured level to halve.

What all share (assay type): ADME, organism-based
Data set [1] in a line: Tmax in plasma of male C57BL6 mouse at 3 mg/kg, po.
The nature of data set [2]: AUClast in plasma of male C57BL6 mouse at 3 mg/kg, po.
Data set [3] can be described thus: AUC (infinity) in brain of male C57BL6 mouse at 3 mg/kg, po.
The nature of data set [4]: Tmax in brain of male C57BL6 mouse at 3 mg/kg, po.
Data set [5] can be described thus: Cmax in plasma of male C57BL6 mouse at 3 mg/kg, po.
Data set [6] in a line: AUClast in brain of male C57BL6 mouse at 3 mg/kg, po.
Data set [7] in a line: Half life in brain of male C57BL6 mouse at 3 mg/kg, po.
Data set [8] can be described thus: AUC (infinity) in plasma of male C57BL6 mouse at 3 mg/kg, po.
Data set [9] in a line: Half life in plasma of male C57BL6 mouse at 3 mg/kg, po.
Data set [10] can be described thus: Cmax in brain of male C57BL6 mouse at 3 mg/kg, po.

With `CCCOc1cc(CCN)c(OC)cc1Br`, the Tmax in [1] was 0.5 h; in [4], 1 h. Moreover, the AUC(0-t) was determined as 284 ng·h/mL in data set [2] and 6480 ng·h/mL in data set [6]. The AUC(0-inf) in data set [3] worked out at 6680 ng·h/mL; in [8] it was 291 ng·h/mL. Further, the results for the Cmax in data set [5] and in data set [10] were 130 ng/mL and 1850 ng/mL, respectively. Further, the half-life in [7] was 1.29 h; in data set [9], 1.44 h.
Take `CN(C)CCc1c[nH]c2cccc(O)c12` [PSILOCIN]: the area under the curve AUC(0-t) is 1060 ng·h/mL in [2] and 3600 ng·h/mL in [6]. Besides, the AUC(0-inf) in data set [3] came out at 4420 ng·h/mL; in data set [8], 1140 ng·h/mL. Besides, the Tmax in data set [4] turned out to be 0.5 h. Also, the Cmax in [5] came to 878 ng/mL; in [10], 1340 ng/mL. Besides, the half-life was 4.47 h in data set [7] and 1.7 h in data set [9].
